These results are taken from ChEMBL document CHEMBL1127270, “Enantioselective synthesis of PD144723: a potent stereospecific anticonvulsant” (Bioorg Med Chem Lett, 1994).

Experiment [1] deals with Mus musculus. The experiment can be described thus: Percent of mice protected in blocking maximal electroshock seizures test at a dose of 100 mg/kg, iv,. It counts as functional. In general terms: In the maximal electroshock model the usual endpoint is tonic extension of the hind limbs.
The test system of experiment [2] is Mus musculus. The experiment can be described thus: Percent of mice protected in blocking maximal electroshock seizures test at a dose of 500 mg/kg, iv,. Type of experiment: functional.
The species named for experiment [3] is Mus musculus. The experiment is described as follows: Effective dose for anticonvulsant activity (blocking maximal electroshock seizures) in male CF-1 strain mice was measured. It counts as functional.
Experiment [4] is described as follows: In vitro inhibition of [3H]-gabapentin binding to partially purified rat neocortex synaptic plasma membranes. Type of experiment: cell membranes, Membrane.
The species entered for experiment [5] is Rattus norvegicus. The experiment is described as follows: In vitro percent inhibition of [3H]gabapentin binding at log molar concentration of -5.5.
For experiment [6], the species on record is Rattus norvegicus. The experiment is described as follows: In vitro percent inhibition of [3H]gabapentin binding at log molar concentration of -6.
Experiment [7] is filed under the species Rattus norvegicus. The experiment is described as follows: In vitro percent inhibition of [3H]gabapentin binding at log molar concentration of -6.5.
The species entered for experiment [8] is Rattus norvegicus. The experiment is described as follows: In vitro percent inhibition of [3H]gabapentin binding at log molar concentration of -7.
The species entered for experiment [9] is Rattus norvegicus. The experiment is described as follows: In vitro percent inhibition of [3H]gabapentin binding at log molar concentration of -7.5.
The species entered for experiment [10] is Rattus norvegicus. The experiment can be described thus: In vitro percent inhibition of [3H]gabapentin binding at log molar concentration of -8.
For experiment [11], the species on record is Rattus norvegicus. The experiment can be described thus: In vitro percent inhibition of [3H]gabapentin binding at log molar concentration of -4.5.
Experiment [12] is filed under the species Rattus norvegicus. The experiment is described as follows: In vitro percent inhibition of [3H]gabapentin binding at log molar concentration of -5.
The species named for experiment [13] is Rattus norvegicus. The experiment is described as follows: In vitro percent inhibition of [3H]gabapentin binding at log molar concentration of -8.5.
For experiment [14], the species on record is Rattus norvegicus. The experiment can be described thus: In vitro percent inhibition of [3H]gabapentin binding at log molar concentration of -4.
Experiment [15] deals with Mus musculus. The experiment can be described thus: Percent of mice protected in blocking maximal electroshock seizures test at a dose of 150 mg/kg, iv,. It counts as functional.
Experiment [16] has as its system Mus musculus. The experiment is described as follows: Percent of mice protected in blocking maximal electroshock seizures test at a dose of 450 mg/kg, iv,. It counts as functional.
Experiment [17] deals with Mus musculus. The experiment is described as follows: Percent of mice protected in blocking maximal electroshock seizures test at a dose of 50 mg/kg, iv,. Type of experiment: functional.
Experiment [18] relates to Mus musculus. The experiment can be described thus: Percent of mice protected in blocking maximal electroshock seizures test at a dose of 75 mg/kg, iv,. It counts as functional.
Experiment [19] has as its system Mus musculus. The experiment is described as follows: Percent of mice protected in blocking maximal electroshock seizures test at a dose of 750 mg/kg, iv,. Type of experiment: functional.

On to `CC(C)C[C@@H](CN)CC(=O)O`, for which the Protection in the experiment with Mus musculus [1] was around 94%; in the experiment on Mus musculus [2], around 1%. Further, in the experiment listed under Mus musculus [3], the ED50 – broadly, the dose at which the effect has come halfway, by size or by number of responders – was above 300 mg/kg. Besides, in experiment [4], the IC50 (commonly the concentration that gives 50% inhibition) turned out to be 620 nM. Also, the inhibition – broadly, the percentage by which the read-out fell short of the control – in the experiment listed under Rattus norvegicus [5] was found to be 80%; in the experiment filed under Rattus norvegicus [6] it was 60%; in the experiment filed under Rattus norvegicus [7], 38%; in the experiment filed under Rattus norvegicus [8], 8%; in the experiment listed under Rattus norvegicus [9] it was 10%; in the experiment listed under Rattus norvegicus [10], 0%. In addition, the inhibition in the experiment listed under Rattus norvegicus [11] is 90%; in the experiment filed under Rattus norvegicus [12] it was 80%.
Regarding `CC(C)CC(CN)CC(=O)O` (racemic), in experiment [4], the IC50 amounted to 83 nM. Further, the inhibition was 92% in the experiment listed under Rattus norvegicus [5]; 90% in the experiment filed under Rattus norvegicus [6]; 74% in the experiment listed under Rattus norvegicus [7]; 50% in the experiment listed under Rattus norvegicus [8]; 30% in the experiment filed under Rattus norvegicus [9]; 12% in the experiment listed under Rattus norvegicus [10]. The inhibition in the experiment filed under Rattus norvegicus [13] was 10%; in the experiment filed under Rattus norvegicus [14] it was 100%; in the experiment listed under Rattus norvegicus [11] it was 98%; in the experiment filed under Rattus norvegicus [12], 94%.
On to `NCC1(CC(=O)O)CCCCC1` [GABAPENTIN], for which the ED50 in the experiment listed under Mus musculus [3] was found to be 87 mg/kg. Moreover, the Protected in the experiment with Mus musculus [15] was around 75%; in the experiment with Mus musculus [16], around 74%; in the experiment with Mus musculus [17] it was around 1%; with Mus musculus [18], around 70%; in the experiment with Mus musculus [19], around 99%. Besides, in experiment [4], the IC50 is 80 nM.
On to `CC(C)C[C@H](CN)CC(=O)O` [PREGABALIN], for which the ED50 in the experiment listed under Mus musculus [3] is 20 mg/kg. For the same compound, the IC50 in experiment [4] amounted to 37 nM. The inhibition is 94% in the experiment filed under Rattus norvegicus [5]; 90% in the experiment filed under Rattus norvegicus [6]; 85% in the experiment filed under Rattus norvegicus [7]; 75% in the experiment listed under Rattus norvegicus [8]; 50% in the experiment filed under Rattus norvegicus [9]; 25% in the experiment listed under Rattus norvegicus [10]. Moreover, the inhibition came to 100% in the experiment filed under Rattus norvegicus [11] and 98% in the experiment listed under Rattus norvegicus [12].
